According to patent publication US20230340012A1, “NATURAL AND SYNTHETIC COMPOUNDS FOR TREATING CANCER AND OTHER DISEASES” (PACIFIC ARROW LIMITED, priority 2009, published 2023):
Values after ≈ are worked out from the molar mass of the structure shown.

Assays:
WI38 = assay: MTT assay, normal human lung fibroblast (WI38); assay type: cell-based
Protocol: Method: A. Cells • -WI38 is a Normal Lung fibroblast. Cells were grown in MEM medium supplemented with 10% FCS, antibiotics and glutamine. 20 K cells were seeded per well (96-welled plate) for one day before drug-treatment • -ES2 is an Ovary Clear cells carcinoma. Cells were grown in RPMI-1640 medium supplemented with 10% FCS, antibiotics and glutamine. 10 K cells were seeded per well (96-welled plate) for one day before drug-treatment.
B. Drug treatment: • -Drug: Tig-S. stored as 1000x stock solution in DMSO. • -Drug concentration used: from 0.15 - 20 ug/ml. • -Drug-treatment was carried out for 2 days (ES2) or 6 days (WI38). For the 6 days incubation, cells were fed with fresh medium (with drug) on day 3 and 5.
C. At the end of the drug-treatment, cytotoxic test was performed with MTT assay.

Y79 (retinoblastoma) = assay: Inhibition of eye cancer cells Y79 (retinoblastoma), MTT; assay type: cell-based, human; details: 2 days
Protocol: Cells: Human Eye cancer cells Y79 (retinoblastoma) are cultured in RPMI1640 medium supplemented with 20% FCS, glutamine and antibiotics.
Starting cells concentration: 400 K per ml in a 24-well plate.
Drug: Tig-S and Tig-R (100× stock solution in 10%DMSO-90% RPMI-1640).
Drug-treatment: Cells were cultured with or without drug (DMSO control) for 2 days. After Drug-treatment, the quantity of live cells is determined with MTT assay*. With this method, the percentage of cell growth with drugs was determined by comparing to those of no-drug (DMSO) control.
MTT assay. To measure the amount of live cells, MTT (3-[4,5-Dimethylthiazol-2-yl]-2,5-diphenyl-tetrazolium bromide) (0.5 mg/ml) was added to cultures and incubated for an hour. Cells were then collected by centrifugation. The formation of formazan (proportion to live cells activity) in the cells was dissolved with DMSO and the O.D. at 490 nm was measured by an ELISA reader. The MTT level of cells before drug-treatment (T0) and after the drug-treatment (TD) was measured. The % cell-growth (%G) is calculated as: %G = (TD-T0) / (TC-T0) × 100 where TC or TD represent O.D. readings of control or drug-treated cells.
When T0 > TD, then the negative growth (cytotoxicity) is expressed as - % of the control and is calculated as: - %G = (TD-T0) / T0) × 100.

cancer cells = assay: MTT cytotoxic assay of esterification products (Cytotoxicity activity); assay type: cell-based, human
Summary of the method: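 Cytotoxicity was read by MTT (Carmichael method, modified), with cells seeded 24 h ahead of treatment. Sixteen human cancer lines spanning bone, lung, bladder, ovary, colon, pancreas, prostate, skin, mouth, kidney, breast, liver, brain, leukemia and cervix were used. Test samples were acyl chloride esterification products of triterpenes, as mixtures or HPLC-purified compounds.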

Erythrocytes (RBC) = assay: The haemolytic assay
Protocol: Erythrocytes (RBC) were isolated from human blood (EDTA whole blood, collected randomly). 50 ul of the 10% RBC suspension (in PBS) was added to 2 ml of sample solutions (concentration range from 0.1 ug/ml to 400 ug/ml) in PBS. The mixture was vortexed briefly and sat for 60 min at room temperature. The mixture was spun at 3 K for 10 min and the relative amounts of lysed hemoglobin in the supernatant were measured at 540 nm.

[1] = esterification products isolated with HPLC, graded strong / moderate / weak

Molecule	IC50 in normal human fibroblast cells (WI38) (WI38; MTT) [µg/mL]	IC50, eye cancer Y79 retinoblastoma (Y79 (retinoblastoma)) [µg/mL]	Cytotoxicity activity (cancer cells; [1])	hemolytic activity (Erythrocytes (RBC); in words, no concentration given)	hemolytic activity (Erythrocytes (RBC); up to 20 ug/ml)	Cytotoxicity activity (cancer cells; esterification products of E4A—Tig—N with senecioyl chloride)	IC50, WI38 cells (WI38; 6 days drug treatment, MTT) [µg/mL]	% of the control cell growth, WI38 (WI38; at 10 ug/ml)	MTT OD as % of the original value, WI38 (WI38; at 20 ug/ml)	cell loss or death, WI38 (WI38; at 20 ug/ml)	cells died, WI38 (WI38; with 10 ug/ml) [%]
24,28-O-Tigloyl-3β,16α, 21β, 22a, 24β, 28-hexahydroxyolean-12-ene [Tig-R]	10 to 15	7.5	strong	no hemolytic activity	do not have hemolytic activity						
CC=C(C)C(=O)OCC1(C)C(O)CCC2(C)C1CCC1(C)C2CC=C2C3CC(C)(C)C(O)C(O)C3(CO)C(O)CC21C (centres unmarked) [Tig-N]			moderate		do not have hemolytic activity	moderate					
CC=C(C)C(=O)OCC1(C)C(O)CCC2(C)C1CCC1(C)C2CC=C2C3CC(C)(C)C(OC(=O)C(C)=CC)C(O)C3(CO)C(O)CC21C (centres unmarked) [Tig-S]		0.1 (≈ 0.149 µM)					1.5 (≈ 2.24 µM)	about 55%	about 90%	about 10%	10
